TGI and GI50 data for 17 compounds are collected here from PubChem BioAssay (NCI).

Test systems include LOX IMVI melanoma; ACHN renal; SK-MEL-2 melanoma; SNB-19 CNS; NCI-H460 lung; A549 NSCLC; RXF 393 renal; BT-549 breast; NCI/ADR-RES ovarian; HS 578T breast.
Holding throughout (experiment): NCI tumour cell line growth inhibition, 48 h

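Step 1: Grow cells in 96-well plates. Step 2: Expose to compound for 48 hours at 5 concentrations. Step 3: Interpolate endpoints linearly; if unreached, use highest concentration. At the GI50, growth is halved. The concentration for full growth arrest is given as TGI.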 Bounds are passed on as bounds.

In the case of `CC1=C(C(=O)Nc2cc(=O)n(C)c(=O)n2C)C(c2ccc([N+](=O)[O-])cc2)C(C(=O)Nc2cc(=O)n(C)c(=O)n2C)=C(C)N1`, the TGI in the experiment with LOX IMVI melanoma, in the experiment on ACHN renal, with SK-MEL-2 melanoma, in the experiment on SNB-19 CNS, in the experiment on NCI-H460 lung and with A549 NSCLC was above 100 µM throughout. In the experiment on RXF 393 renal, this compound returned a TGI above 100 µM.

`O=c1cc(-c2ccccc2)oc2cc(O)cc(O)c12`: the TGI was 46.8 µM in the experiment with LOX IMVI melanoma; 33.9 µM in the experiment on ACHN renal; 39.6 µM with SK-MEL-2 melanoma; 88.8 µM in the experiment with SNB-19 CNS; 40.2 µM in the experiment on NCI-H460 lung; above 100 µM in the experiment on A549 NSCLC.

Consider `CN(CCc1ccccn1)c1nc(=[N+](C)C)ss1`, for which the TGI in the experiment on LOX IMVI melanoma, in the experiment on ACHN renal, in the experiment with SK-MEL-2 melanoma, in the experiment with SNB-19 CNS, in the experiment with NCI-H460 lung and in the experiment with A549 NSCLC was above 100 µM each time. The compound further showed a TGI in the experiment on RXF 393 renal above 100 µM.

With `COc1cc2c(cc1OC)C(OC)N(C)c1c-2ccc2cc3c(cc12)OCO3` (stereo not drawn), the TGI in the experiment with BT-549 breast was above 75 µM; in the experiment with LOX IMVI melanoma, above 32.8 µM; in the experiment on ACHN renal, above 75 µM; with SK-MEL-2 melanoma, 5.02 µM; in the experiment with SNB-19 CNS it was above 75 µM; in the experiment with NCI/ADR-RES ovarian it was above 55.3 µM. Moreover, the TGI came out at 3.58 µM in the experiment on NCI-H460 lung and 22.7 µM in the experiment with RXF 393 renal.

For the compound `COc1ccc(Cc2cc3c(cc2OCC(=O)O)OCO3)cc1`, the TGI in the experiment on LOX IMVI melanoma, in the experiment with ACHN renal, with SK-MEL-2 melanoma, in the experiment with SNB-19 CNS, in the experiment with NCI-H460 lung and in the experiment on A549 NSCLC was above 100 µM in each case. This compound also had a TGI in the experiment on RXF 393 renal above 100 µM.

For the compound `CC(=O)C1C(=O)NC(=O)C1=O` (stereo not drawn), the TGI with LOX IMVI melanoma, in the experiment with ACHN renal, in the experiment on SK-MEL-2 melanoma, in the experiment on SNB-19 CNS, in the experiment on NCI-H460 lung and in the experiment with RXF 393 renal was above 100 µM each time.

As to `CN(C)CCSc1cccc(-c2cc(-c3cccc(SCCN(C)C)c3)nc(SCCN(C)C)n2)c1`, the TGI was determined as 3.03 µM in the experiment with LOX IMVI melanoma; 19.4 µM in the experiment with ACHN renal; 21.1 µM in the experiment with SK-MEL-2 melanoma; 3.46 µM in the experiment on NCI-H460 lung; 3.47 µM in the experiment with A549 NSCLC; 2.8 µM in the experiment on RXF 393 renal.

Regarding `C#CCN(N=O)C(=O)NC(CCCNC(=O)OCc1ccccc1)C(=O)OCc1ccccc1` (stereo not drawn), the TGI in the experiment with LOX IMVI melanoma, in the experiment with ACHN renal, in the experiment with SK-MEL-2 melanoma, with SNB-19 CNS, with NCI-H460 lung and in the experiment with A549 NSCLC was above 100 µM throughout. This compound registered a TGI with RXF 393 renal of 84.4 µM.

`CC(C)C1CC2C(=O)N(c3ccccc3)C(=O)C2c2[nH]c3ccccc3c21` (stereo not drawn): the TGI with ACHN renal was 38.3 µM; in the experiment on SK-MEL-2 melanoma, above 100 µM; in the experiment on NCI-H460 lung, above 100 µM; with A549 NSCLC, above 100 µM; in the experiment with RXF 393 renal, 57.4 µM.

Take `O=C1c2ccccc2NC1(c1ccccc1)c1c(-c2ccccc2)[nH]c2ccccc12` (stereo not drawn): the TGI in the experiment on ACHN renal is above 100 µM; in the experiment with SK-MEL-2 melanoma, above 100 µM; in the experiment with SNB-19 CNS it was above 100 µM; in the experiment with NCI-H460 lung it was above 100 µM; in the experiment on A549 NSCLC, above 100 µM; with RXF 393 renal, 64.1 µM.

In the case of `CC1=C(C(=O)NCc2ccccc2)C(c2ccc([N+](=O)[O-])cc2)C(C(=O)NCc2ccccc2)=C(C)N1`, the TGI is 44.1 µM in the experiment on LOX IMVI melanoma; 89.7 µM in the experiment with ACHN renal; above 100 µM in the experiment on SK-MEL-2 melanoma; above 100 µM with SNB-19 CNS; above 100 µM with NCI-H460 lung; above 100 µM in the experiment on A549 NSCLC. Besides, in the experiment on RXF 393 renal, the TGI stood at 86.5 µM.

Turning to `CN(CC#N)C1CCCC[C@H]1O` (stereo partly drawn), the TGI in the experiment with LOX IMVI melanoma, in the experiment with ACHN renal, in the experiment with SK-MEL-2 melanoma, in the experiment on SNB-19 CNS, with NCI-H460 lung and with A549 NSCLC was above 100 µM in each case. The compound also had a TGI in the experiment with RXF 393 renal above 100 µM.

In the case of `O=c1c(O)cccc2cc(O)c(O)c(O)c12`, the GI50 was 5.42 µM in the experiment on HS 578T breast; 13.2 µM in the experiment on LOX IMVI melanoma; 7.82 µM in the experiment on ACHN renal; 8.44 µM in the experiment on SNB-19 CNS; 34.5 µM with NCI/ADR-RES ovarian; 6.86 µM in the experiment on NCI-H460 lung. In addition, the values for the GI50 in the experiment with A549 NSCLC and with RXF 393 renal were above 100 µM and 13.3 µM, respectively. In addition, the TGI in the experiment on HS 578T breast, in the experiment on LOX IMVI melanoma, in the experiment with ACHN renal, with SNB-19 CNS, in the experiment on NCI/ADR-RES ovarian and in the experiment with NCI-H460 lung was above 100 µM throughout. Further, the TGI in the experiment with A549 NSCLC and in the experiment on RXF 393 renal was above 100 µM throughout.

Turning to `CN1C(c2ccccc2)CS(=O)(=O)CS1(=O)=O` (stereo not drawn), the TGI in the experiment with LOX IMVI melanoma, with ACHN renal, with SK-MEL-2 melanoma, in the experiment on SNB-19 CNS, with NCI-H460 lung and in the experiment with A549 NSCLC was above 100 µM in each case. In the experiment on RXF 393 renal, this compound returned a TGI above 100 µM.

With `O=C(Cc1csc(-c2nc(CC(=O)NNc3ccccc3)cs2)n1)NNc1ccccc1`, the TGI with LOX IMVI melanoma was 43.7 µM; in the experiment on ACHN renal, above 100 µM; in the experiment with SK-MEL-2 melanoma it was above 100 µM; with SNB-19 CNS, above 100 µM; in the experiment on NCI-H460 lung, 60.4 µM; in the experiment on A549 NSCLC, above 100 µM. The compound further registered a TGI with RXF 393 renal above 100 µM.

On to `CC(=O)[O-].[Mn+3].[O-]c1ccccc1C=NCCN=Cc1ccccc1[O-]`, for which the GI50 was above 100 µM with LOX IMVI melanoma; above 100 µM with ACHN renal; above 100 µM with SNB-19 CNS; 44.4 µM in the experiment on NCI-H460 lung; above 100 µM with A549 NSCLC; above 100 µM in the experiment with RXF 393 renal. The TGI in the experiment on LOX IMVI melanoma, in the experiment on ACHN renal, in the experiment on SNB-19 CNS, with NCI-H460 lung, in the experiment on A549 NSCLC and in the experiment with RXF 393 renal was above 100 µM in each case.

For `NCCN.NCCN.O=C[O-].O=C[O-].[Co+3].[O-][Cl+3]([O-])([O-])[O-]`, the GI50 with LOX IMVI melanoma, in the experiment with ACHN renal, in the experiment on SK-MEL-2 melanoma, in the experiment with NCI-H460 lung, in the experiment with A549 NSCLC and with RXF 393 renal was above 100 µM throughout. In addition, the TGI in the experiment on LOX IMVI melanoma, in the experiment with ACHN renal, with SK-MEL-2 melanoma, with NCI-H460 lung, with A549 NSCLC and in the experiment with RXF 393 renal was above 100 µM each time.
